The values that follow come from patent US20250186646A1, “Use of Volatile Compositions to Limit or Eliminate Perception of Fecal Malodour” (Firmenich SA, priority 2016, published 2025).

One assay deals with p-cresol. Description: Reduction of perceived intensity of p-cresol by MOCs (Table 16). It counts as in vivo. The conditions noted are these: for p-cresol Dyn Conc: concentration at which the MOC reduces the perceived intensity of p-cresol; for p-cresol Reduction: perceived intensity of p-cresol, at the Dyn Conc.
The next assay concerns indole. The assay is described as follows: Reduction of perceived intensity of indole by MOCs (Table 16). It counts as in vivo. The following applies: for Indole Dyn Conc: concentration at which the MOC reduces the perceived intensity of indole; for Indole Reduction: perceived intensity of indole, at the Dyn Conc.
Another assay relates to DMTS. Description: Reduction of perceived intensity of DMTS by MOCs (Table 16). It is filed as in vivo. The conditions noted are these: for DMTS Dyn Conc: concentration at which the MOC reduces the perceived intensity of DMTS; for DMTS Reduction: perceived intensity of DMTS, at the Dyn Conc.
In the next assay the test system is butyric acid. Description: Reduction of perceived intensity of butyric acid by MOCs (Table 16). The conditions noted are these: for Butyric acid Dyn Conc: concentration at which the MOC reduces the perceived intensity of butyric acid; for Butyric acid Reduction: perceived intensity of butyric acid, at the Dyn Conc. It is filed as in vivo.
Assay [1] deals with fecal malodour reconstitution. Description: Olfactometer blind sensory evaluation of test and control formulations (Example 15). It counts as in vivo. More on the design: Fecal Score / Freshness Score / Pleasantness Score: scale not given here. The following applies: for Fecal Score: in combination with fecal reconstitution; for Fecal Score left: relative to fecal reconstitution alone (100). The protocol: (§1) The performance of a test formulation containing LILYFLORE, Violet AT and Isoraldeine to counteract the fecal malodour perceived from a fecal malodour reconstitution was tested. The amount of each single ingredient in the test formulation was the same as the corresponding concentration of the ingredient that was incorporated into the Floral compositions. Separate control formulations were also included, comprising LILYFLORE, Violet AT and Isoraldeine separately, at the same concentration as each single ingredient in the test formulation. The sensory evaluation was blind, and performed using olfactometers and a set of more than 30 participants evaluating blind. In parallel, the headspace concentration of the ingredients from the test and three control formulations was determined.
as §1, with “of another” for “of a”, “and dihydrolinalol” for “and Isoraldeine”, “tested.” for “tested. The amount of each single ingredient in the test formulation was the same as the corresponding concentration of the ingredient that was incorporated into the Floral compositions.”
The performance of another test formulation containing LILYFLORE, isoraldeine, Violet AT and dihydrolinalol to counteract the fecal malodour perceived from a fecal malodour reconstitution was tested. Separate control formulations were also included, comprising LILYFLORE, Violet AT, isoraldeine and dihydrolinalol separately, at the same concentration as each single ingredient in the test formulation. The sensory evaluation was blind, and performed using olfactometers and a set of more than 30 participants evaluating blind. In parallel, the headspace concentration of the ingredients from the test and […] control formulations was determined.

Assay [2] in a line: Olfactory detection thresholds (ODT). The following applies: gas phase.

“(1RS,2RS)-2,4-dimethyl-3-cyclohexene-1-carbaldehyde (A) + (1RS,2SR)-2,4-dimethyl-3-cyclohexene-1-carbaldehyde (B) [Zestover]”: in the assay with p-cresol, the “p-cresol Dyn Conc” value came to 0.0607 µg/L and the “p-cresol Reduction” value stood at 66. In the assay with indole, the “Indole Dyn Conc” value was found to be 0.348 µg/L and the “Indole Reduction” value was determined as 82. In the assay on DMTS, the “DMTS Dyn Conc” value turned out to be 0.38 µg/L and the “DMTS Reduction” value came out at 78. Further, in the assay with butyric acid, the “Butyric acid Dyn Conc” value turned out to be 0.0809 µg/L and the “Butyric acid Reduction” value is 68.
Turning to `OCCc1ccccc1` [Phenylethyl alcohol, 2-PHENYLETHANOL], in the assay on p-cresol, the “p-cresol Dyn Conc” value was 0.318 µg/L and the “p-cresol Reduction” value is 49. Also, in the assay with indole, the “Indole Dyn Conc” value was 0.538 µg/L and the “Indole Reduction” value is 46. Further, in the assay on DMTS, the “DMTS Dyn Conc” value is 1.03 µg/L and the “DMTS Reduction” value turned out to be 55.
As for “(+−)-(3E)-3-methyl-4-(2,6,6-trimethyl-2-cyclohexen-1-yl)-3-buten-2-one (A) + (+−)-(1E)-1-(2,6,6-trimethyl-2-cyclohexen-1-yl)-1-penten-3-one (B) [Isoraldeine 70P]”, in the assay on p-cresol, the “p-cresol Dyn Conc” value stood at 0.0674 µg/L and the “p-cresol Reduction” value is 49. Further, in the assay with indole, the “Indole Dyn Conc” value was 0.542 µg/L and the “Indole Reduction” value came out at 79. In assay [1] (Table 18), the “Fecal % Red” value was determined as 58%, the “Freshness Score” value is listed as 4.8, the “Pleasantness Score” value is 5.1 and the “Fecal Score” value is 3.6. For the same compound, in assay [1] (Table 18), the “Fecal Score left” value stood at 42. Also, in assay [1] (Table 20), the “Fecal % Redn” value is 49%, the “Freshness Score” value is listed as 4.6, the “Pleasantness Score” value turned out to be 4.5 and the “Fecal Score” value is reported as 4.4. The “Fecal Score left” value in assay [1] (Table 20) came out at 51. For the same compound, in the assay with DMTS, the “DMTS Dyn Conc” value came to 0.216 µg/L and the “DMTS Reduction” value worked out at 69. Moreover, in assay [2], the “olfactory detection thresholds (ODT)” value was 0.000192 µg/L. Besides, in the assay on butyric acid, the “Butyric acid Dyn Conc” value amounted to 0.0674 µg/L and the “Butyric acid Reduction” value was 25.
As for “(+−)-(3E)-4-(2,6,6-trimethyl-2-cyclohexen-1-yl)-3-buten-2-one (A) + (3E)-4-(2,6,6-trimethyl-1-cyclohexen-1-yl)-3-buten-2-one (B) [Violet AT]”, in the assay with p-cresol, the “p-cresol Dyn Conc” value amounted to 0.133 µg/L and the “p-cresol Reduction” value amounted to 85. Also, in the assay on indole, the “Indole Dyn Conc” value was found to be 0.133 µg/L and the “Indole Reduction” value is given as 72. Moreover, in assay [1] (Table 18), the “Fecal % Red” value is on record as 58%, the “Freshness Score” value is reported as 4.7, the “Pleasantness Score” value is 5.0 and the “Fecal Score” value turned out to be 3.6. In addition, the “Fecal Score left” value in assay [1] (Table 18) is listed as 42. Besides, in assay [1] (Table 19), the “Fecal % Redn” value was 53%, the “Freshness Score” value was 4.5, the “Pleasantness Score” value amounted to 4.8 and the “Fecal Score” value is 4.1. For the same compound, in assay [1] (Table 19), the “Fecal Score left” value came out at 47. Moreover, in assay [1] (Table 20), the “Fecal % Redn” value is reported as 44%, the “Freshness Score” value stood at 4.1, the “Pleasantness Score” value came to 4.2 and the “Fecal Score” value is 4.9. For the same compound, the “Fecal Score left” value in assay [1] (Table 20) stood at 56. In the assay on DMTS, the “DMTS Dyn Conc” value was found to be 0.151 µg/L and the “DMTS Reduction” value turned out to be 81. Besides, in assay [2], the “olfactory detection thresholds (ODT)” value was 0.000508 µg/L. In addition, in the assay on butyric acid, the “Butyric acid Dyn Conc” value worked out at 0.123 µg/L and the “Butyric acid Reduction” value was 55.
Turning to `C/C=C/C(=O)C1C(C)=CCCC1(C)C` (racemic) [Alpha damascone, (+−)-(2E)-1-(2,6,6-trimethyl-2-cyclohexen-1-yl)-2-buten-1-one], in the assay on p-cresol, the “p-cresol Dyn Conc” value came out at 0.0413 µg/L and the “p-cresol Reduction” value is 62. Also, in the assay with butyric acid, the “Butyric acid Dyn Conc” value stood at 0.041 µg/L and the “Butyric acid Reduction” value is 43.
As for `CC(=O)OC(c1ccccc1)C(Cl)(Cl)Cl` (racemic) [Rosinol Cryst, (+−)-2,2,2-TRICHLORO-1-PHENYLETHYL ACETATE], in the assay on DMTS, the “DMTS Dyn Conc” value was found to be 0.659 µg/L and the “DMTS Reduction” value stood at 38.
As for `CC(=O)OCc1ccccc1` [Benzyl acetate, Benzyl Acetate], in the assay on butyric acid, the “Butyric acid Dyn Conc” value amounted to 1.31 µg/L and the “Butyric acid Reduction” value turned out to be 54.
As for `Cc1ccc2c(c1)CC(C)(CO)C2` (racemic) [LILYFLORE, (+−)-2,5-DIMETHYL-2-INDANMETHANOL], in the assay with p-cresol, the “p-cresol Dyn Conc” value is 0.22 µg/L and the “p-cresol Reduction” value worked out at 76. In the assay with indole, the “Indole Dyn Conc” value was found to be 0.206 µg/L and the “Indole Reduction” value came out at 81. For the same compound, in assay [1] (Table 18), the “Fecal % Red” value amounted to 56%, the “Freshness Score” value was 4.4, the “Pleasantness Score” value is listed as 4.8 and the “Fecal Score” value was determined as 3.8. Moreover, the “Fecal Score left” value in assay [1] (Table 18) is 44. Further, in assay [1] (Table 19), the “Fecal % Redn” value came out at 45%, the “Freshness Score” value was found to be 4.0, the “Pleasantness Score” value stood at 4.1 and the “Fecal Score” value was determined as 4.7. Also, the “Fecal Score left” value in assay [1] (Table 19) was found to be 55. Further, in assay [1] (Table 20), the “Fecal % Redn” value was determined as 45%, the “Freshness Score” value is 3.9, the “Pleasantness Score” value is 3.8 and the “Fecal Score” value amounted to 4.8. Further, the “Fecal Score left” value in assay [1] (Table 20) amounted to 55. Besides, in the assay with DMTS, the “DMTS Dyn Conc” value turned out to be 0.126 µg/L and the “DMTS Reduction” value is recorded as 64. The “olfactory detection thresholds (ODT)” value in assay [2] was 0.000128 µg/L. Also, in the assay with butyric acid, the “Butyric acid Dyn Conc” value was found to be 0.0351 µg/L and the “Butyric acid Reduction” value amounted to 58.
`CCCCCC/C(C=O)=C\c1ccccc1` [Hexylcinnamic aldehyde, (2E)-2-benzylideneoctanal]: in the assay on p-cresol, the “p-cresol Dyn Conc” value was 1.34 µg/L and the “p-cresol Reduction” value is 39. Besides, in the assay with butyric acid, the “Butyric acid Dyn Conc” value is 1.34 µg/L and the “Butyric acid Reduction” value was 26.
Consider `CC(C)=CCCC(C)CCO` (racemic) [Citronellol BJ, (+−)-3,7-DIMETHYL-6-OCTEN-1-OL], for which, in the assay on p-cresol, the “p-cresol Dyn Conc” value was determined as 0.11 µg/L and the “p-cresol Reduction” value is on record as 61. Also, in the assay with indole, the “Indole Dyn Conc” value stood at 0.252 µg/L and the “Indole Reduction” value is on record as 65. Moreover, in the assay with butyric acid, the “Butyric acid Dyn Conc” value was 0.0947 µg/L and the “Butyric acid Reduction” value was determined as 55.
For `CCCCCC1CCCC1=O` (racemic) [Delphone, (+−)-2-pentylcyclopentanone], in the assay on p-cresol, the “p-cresol Dyn Conc” value was 0.0488 µg/L and the “p-cresol Reduction” value is on record as 64. Also, in the assay with DMTS, the “DMTS Dyn Conc” value came to 0.046 µg/L and the “DMTS Reduction” value was found to be 67.
